The target of assay [1] is T1, Rat CBG-RCL1 (Rattus norvegicus, UniProt P31211, A357V/P358T).
T1 construct: residues 5 to 374 of rat CBG (P31211); GST (N, cleaved yes); made in house; host or cells: E. coli BL21 Star (DE3)
T1 sequence (P31211 27-396 A357V/P358T): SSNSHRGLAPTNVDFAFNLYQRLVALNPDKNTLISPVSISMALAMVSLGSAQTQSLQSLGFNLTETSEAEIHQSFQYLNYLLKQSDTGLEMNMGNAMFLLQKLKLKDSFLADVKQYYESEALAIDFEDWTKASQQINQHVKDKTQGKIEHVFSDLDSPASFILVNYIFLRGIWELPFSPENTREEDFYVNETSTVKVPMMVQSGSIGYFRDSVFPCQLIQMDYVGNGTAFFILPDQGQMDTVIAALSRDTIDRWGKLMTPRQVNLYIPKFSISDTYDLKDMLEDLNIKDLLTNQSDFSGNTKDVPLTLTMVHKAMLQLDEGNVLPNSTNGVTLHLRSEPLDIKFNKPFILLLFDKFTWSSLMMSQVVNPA
Nature of the assay: Isothermal titration calorimetry, steroid titrated to uncleaved rat CBG-RCL1. The class given is binding. The settings on record: ITC, 25°C. The method, then:
(§1) The coding sequences of residues 11 to 383 of human CBG (Swiss-Prot entry P08185) and residues 5 to 374 of rat CBG (P31211) were cloned into a pGEX-2T vector (GE Healthcare, Uppsala), yielding N-terminal glutathione-S-transferase (GST) fusion proteins. Mutations were introduced using a two-stage PCR procedure based on the QuikChange (Stratagene, Santa Clara) site-directed mutagenesis protocol. All experiments with human CBG were conducted with a mutant in which surface residue Lys126 was replaced by alanine in order to facilitate crystallization. Wild-type rat CBG (rat CBG-WT) and rat CBG mutants CBG-RCL1, CBG-RCL2 and CBG-RCL3 were produced to probe the function of the RCL residues in rat CBG. All gene constructs were confirmed by DNA sequencing prior to protein production.
(§2) The GST-tagged human and rat CBG variants were produced in E. coli BL21 Star™ (DE3) cells (Invitrogen, Carlsbad) using the ZYM-5052 auto-inducing medium. For each variant, 10 L of ZYM-5052 medium containing 100 µg/mL ampicillin were inoculated with an overnight culture of a single clone. The flasks were incubated at 37°C until the optical density at 600 nm reached 0.3. The temperature was then lowered to 20°C, and the cells were allowed to grow for an additional 20 h. The pellet was resuspended in PBS buffer (pH 7.4) containing 5 mM EDTA after cell harvesting (4 mL of buffer per gram of pellet).
The protein samples were dialyzed against ITC buffer (20 mM potassium phosphate, 50 mM NaCl, pH 7.4) and titrated with steroids in a VP-ITC microcalorimeter (Microcal, Piscataway). All solutions were filtered (0.2 µm filter pore size) and degassed for 30 min prior to the titration experiments. The sample cell was filled with protein solution containing 15 µM rat CBG or 20 µM human CBG and titrated with steroid solutions containing 150 µM and 200 µM ligand, respectively. The titrations consisted of an initial injection of 2 µL followed by 25 consecutive injections of 10 µL ligand solution at 25°C. A spacing of 240 sec between the injections was used to allow a return to the baseline. Data points from the initial injection, which are generally affected by diffusion during the initial equilibration period after experiment setup, were discarded prior to data analysis. […] The binding curve was generated by plotting the heats of injections against the ratio of ligand to protein in the cell. Integrated heat data were analyzed using nonlinear regression fit with a one-site-binding model in the Origin-7™ software provided with the VP-ITC. Changes in the free energy and entropy can be calculated using the equation: ΔG° = −RTlnK = ΔH°−TΔS°. In this equation ΔG° is the change in Gibbs free energy, R the universal gas constant, T the temperature, and K the association constant. […]

The target of assay [2] is T2, Rat CBG-WT (Rattus norvegicus, UniProt P31211).
T2 construct: residues 5 to 374 of rat CBG (P31211); GST (N, cleaved yes); made in house; host or cells: E. coli BL21 Star (DE3)
T2 sequence (P31211 27-396): T1 sequence (P31211 27-396 A357V/P358T) with V331A, T332P
Nature of the assay: Isothermal titration calorimetry, steroid titrated to rat CBG-WT. The class given is binding. The following applies: ITC, 25°C. How it is done: as §1, §2
(§3) The protein samples were dialyzed against ITC buffer (20 mM potassium phosphate, 50 mM NaCl, pH 7.4) and titrated with steroids in a VP-ITC microcalorimeter (Microcal, Piscataway). All solutions were filtered (0.2 µm filter pore size) and degassed for 30 min prior to the titration experiments. The sample cell was filled with protein solution containing 15 µM rat CBG or 20 µM human CBG and titrated with steroid solutions containing 150 µM and 200 µM ligand, respectively. The titrations consisted of an initial injection of 2 µL followed by 25 consecutive injections of 10 µL ligand solution at 25°C. A spacing of 240 sec between the injections was used to allow a return to the baseline. Data points from the initial injection, which are generally affected by diffusion during the initial equilibration period after experiment setup, were discarded prior to data analysis. […] The binding curve was generated by plotting the heats of injections against the ratio of ligand to protein in the cell. Integrated heat data were analyzed using nonlinear regression fit with a one-site-binding model in the Origin-7™ software provided with the VP-ITC. Changes in the free energy and entropy can be calculated using the equation: ΔG° = −RTlnK = ΔH°−TΔS°. In this equation ΔG° is the change in Gibbs free energy, R the universal gas constant, T the temperature, and K the association constant. The change in enthalpy is denoted as ΔH°, and ΔS° is the change in entropy under standard conditions. The data shown in Table 2 were obtained from single titrations of each complex.

Assay [3] has as its target T3, Cleaved rat CBG-RCL1 (Rattus norvegicus, UniProt P31211, A357V/P358T).
T3 construct: residues 5 to 374 of rat CBG (P31211); GST (N, cleaved yes); made in house; host or cells: E. coli BL21 Star (DE3)
T3 sequence (P31211 27-396 A357V/P358T limits assumed): T1 sequence (P31211 27-396 A357V/P358T)
Description: Isothermal titration calorimetry, steroid titrated to neutrophil elastase-cleaved rat CBG-RCL1. The class given is binding. The method, then: Cleavage of the RCL in human and rat CBG mutants was accomplished with 100 mU human neutrophil elastase (Sigma-Aldrich) per mg purified CBG at 30°C and monitored by SDS-PAGE. The cleavage reaction was stopped with AEBSF.
as §3

Assay [4] deals with human CBG. Also on record: method as in PMID 20631013. The settings on record: 37°C, fluorescence measurements; cited from earlier work.
Assay [5] concerns the target uncleaved human CBG. Also on record: method as in PMID 21325280. The settings on record: cited from earlier work.
Assay [6] has as its target cleaved human CBG. Also on record: method as in PMID 21325280. The settings on record: 37°C, cited from earlier work.
[7] abbreviates: ITC, 25°C, cleaved rat CBG-RCL1.

Where a chain is given by its changes, count along the chain named. Like-named read-outs stand apart in the source and are kept apart here.

Here are results for one compound from paper PMC3530532, “Corticosteroid-Binding Globulin: Structure-Function Implications from Species Differences” (PLoS ONE, 2012).

Turning to `C[C@]12CCC(=O)C=C1CC[C@@H]1[C@@H]2[C@@H](O)C[C@@]2(C)[C@H]1CC[C@]2(O)C(=O)CO` [Hydrocortisone], the “TΔS°” value was -121.4 kJ/mol in assay [1], -85.1 kJ/mol in assay [2] (rat CBG-WT) and -127.3 kJ/mol in assay [3] (setting [7]). The “ΔG°” value in assay [1] is -40.2 kJ/mol; in assay [2] (rat CBG-WT) it was -39.5 kJ/mol; in assay [3] (setting [7]), -38.5 kJ/mol. In addition, the results for the “ΔH°” value in assay [1], in assay [2] (rat CBG-WT) and in assay [3] (setting [7]) were -161.6 kJ/mol, -124.6 kJ/mol and -165.8 kJ/mol, respectively. Also, the Kd is 95 ± 7 nM in assay [1] (single titration); 122 ± 6 nM in assay [2] (single titration, uncleaved rat CBG-WT); 209 ± 20 nM in assay [3] (ITC, 25°C, single titration, cleaved rat CBG-RCL1); 18 nM in assay [4]; 26.9 nM in assay [5] (22°C, uncleaved human CBG, fluorescence titration, read-out: binding affinity); 292 ± 19 nM in assay [5] (37°C, uncleaved human CBG-WT, read-out: K d 37°C). Besides, the Kd in assay [6] (cleaved human CBG-WT, read-out: K d 37°C) is 1370 ± 124 nM. In addition, the “decrease in binding affinity upon RCL cleavage” value in assay [3] (rat CBG, uncleaved vs cleaved rat CBG-RCL1, ITC 25°C) is “about 2 fold”. Also, the “difference of affinities of uncleaved and cleaved human CBG” value in assay [6] (fluorescence titration) is “about 4.7 fold”.
